Measurements: patent US8519163B2, “Anti-tumor activity of AECHL-1, novel triterpenoid isolated from Ailanthus excelsa in vitro and in vivo” (National Centre for Cell Science, priority 2008, dated 2013)

Legend:
B16F10 melanoma cells = assay: In vivo allograft tumor model; set-up: species or system C57B1/6 mice
Method: (§1) The data reported for tumor volumes are expressed as mean±SEM. Statistical differences were determined by ANOVA and post test applied was Tukey-Kramer multiple comparison Test. For Tumor to body weight ratio post test applied was Dunnett multiple comparisons test.

pp53 = assay: Western blot of tumor homogenates of C57B1/6 mice; format: in vivo, mouse; conditions: tumor of C57 mice, 100 μg
Method: (§2) Prior to immunoblot analysis, tumor segments stored at −80° C. were thawed, washed, minced and homogenized in lysis buffer (120 mM NaCl, 1.0% Triton X 100, 20 mM Tris-HCl, pH 7.5, 10% glycerol, 2 mM EDTA, Protease inhibitor cocktail, Roche) using a Polytron homogenization device. Lysates were incubated at 4° C. for 30 min and centrifuged at 14000 r.p.m. in an Eppendorf micro centrifuge for 15 min. Proteins were isolated in solublised form. Protein concentrations were measured by Bradford assay (Bio-Rad protein assay kit) and stored at −80° C. For immunobloting, 60 μg of total protein from the tumor lysates were used Proteins were resolved in a 10% SDS-polyacrylamide gel, transferred to the immobilon-P […] membrane and blocked with 5% (wt/v) non fat dry milk powder (Sigma) in TBST buffer (10 mM Tris pH 7.6, 150 mM NaCl and 0.1% Tween-20) for three hours at room temperature and then incubated with primary antibodies p53, pp53, p21, Cyclin D1, CDK4 and c-Myc in TBST for 3 h and with actin for 1 hour at room temperature. The membrane was incubated further with the secondary antibody HRP-conjugated (BD Bioscience) at 1:10000 dilution for 1 h at room temperature. Following each antibody incubation, the membrane was washed thoroughly with TBST buffer 3 times. The protein bands were visualized using the enhanced chemiluminescence substrate reaction (Pierce) according to the manufacturer's instructions using X-OMAT AR5 film (Kodak)

p21 = assay: Western blot of tumor homogenates of C57B1/6 mice; format: in vivo, mouse; conditions: tumor of C57 mice, 100 μg
Method: as §2

p53 = assay: Western blot of tumor homogenates of C57B1/6 mice; format: in vivo, mouse; conditions: tumor of C57 mice, 100 μg, compared with control
Method: as §2

MCF-7 cells = assay: Cell cycle analysis by flow cytometry; format: cell-based, human; conditions: 24 h
Method: The cell cycle analysis of MCF-7, B16F10 MDA-MB-231 and PC3 cells was done by flow cytometry. […] Cells were harvested with trypsin (0.05%), 0.02% EDTA, 0.05% glucose and a single-cell suspension was prepared. Cells were washed and were pelleted by centrifugation (1000×g for 2 min) and fixed in 70% ethanol while vortexing and stored at 4° C. for 1 hour. Fixed cells were pelleted by centrifugation, to remove ethanol and washed with PBS. Cells were re-suspended in PBS containing 50 μg/ml propidium iodide, 0.1 g/L RNase and 1% BSA, incubated for 30 min at 37° C. in the dark, and analyzed with flow cytometry (FACS Vantage-BD Sciences, USA) equipped with an argon laser at 488 nm. The data was analyzed using Cell Quest software for determining the percent population in different phases of cell cycle.

MCF-7 = assay: In vivo xenograft tumor model; set-up: species or system athymic nude mice
Method: as §1

[1] = tested on: cellular microtubule network; assay: Immunocytochemistry, microtubule network in MCF-7 cells; format: cell-based, human; conditions: paclitaxel 1-20 μM, AECHL-1 2-40 μM, 24 h, confocal microscopy
Method: Immunocytochemistry was performed as described previously. […] Cells were incubated with primary anti-p53 antibodies (1:100; Abcam) and anti-α-tubulin antibodies (1:10000; Sigma chemical Co.) for 1 hour at room temperature. After washing with PBS, cells were incubated with CY2-conjugated secondary antibodies (1:200; Chemicon, Germany) and Alexa-conjugated secondary antibodies (1:10000; Sigma, St. Louis, Mo.) for 45 minutes and nuclear staining was done with DAPI. Images were captured under confocal microscope.
The tumor suppressor p53 plays a critical role in preventing human cancer formation. It translocates into the nucleus and works as a transcription factor by upregulating cell cycle regulatory proteins and induces cell cycle arrest and/or programmed cell death (apoptosis) (11). […] After 24 h of incubation, the p53 translocation in the nucleus (green fluorescence) and microtubule network (red fluorescence) was visualized by confocal microscopy.

**Q.** Which results are given for `N.N.[Cl][Pt][Cl]` [Cisplatin, reference compound]?
**A.** tumor size reduced by (B16F10 melanoma cells; B16F10 allograft, 100 μg intra-tumor for 12 days, day 18): 93.13±0.539%; tumor volume on day 24 (B16F10 melanoma cells; B16F10 allograft, 100 μg, day 24): decreased; histological examination of tumor tissue (B16F10 melanoma cells; C57 mice, 100 μg): significant increase in necrotic nuclei with decreased tumor cell density; phosphorylation of p53 (pp53) (pp53): did not show any change; expression of p21 (p21): increased p21 expression; p53 protein expression (p53): increasing expression

**Q.** Which “Phase of cell cycle (% of cells) G2/M” value (MCF-7 cells; MCF-7, 1 μM) does the source give for `CC(=O)O[C@H]1C(=O)[C@@]2(C)[C@H]([C@H](OC(=O)c3ccccc3)[C@]3(O)C[C@H](OC(=O)[C@H](O)[C@@H](NC(=O)c4ccccc4)c4ccccc4)C(C)=C1C3(C)C)[C@]1(OC(C)=O)CO[C@@H]1C[C@@H]2O` [Paclitaxel, reference compound] here?
**A.** 72.55%

**Q.** What about the “Phase of cell cycle (% of cells) S” value (MCF-7 cells; MCF-7, 1 μM) of the same molecule?
**A.** 18.65%

**Q.** And the “Phase of cell cycle (% of cells) Sub G0” value (MCF-7 cells; MCF-7, 1 μM)?
**A.** 3.45%

**Q.** What about the “Phase of cell cycle (% of cells) G1” value (MCF-7 cells; MCF-7, 2 μM) of the same molecule?
**A.** 7.41%

**Q.** And the “Phase of cell cycle (% of cells) G2/M” value (MCF-7 cells; MCF-7, 2 μM)?
**A.** 63.71%

**Q.** What about the “Phase of cell cycle (% of cells) S” value (MCF-7 cells; MCF-7, 2 μM) of the same molecule?
**A.** 22.89%

**Q.** And the “Phase of cell cycle (% of cells) Sub G0” value (MCF-7 cells; MCF-7, 2 μM)?
**A.** 5.21%

**Q.** And the “Phase of cell cycle (% of cells) G2/M” value (MCF-7 cells; MCF-7, 5 μM)?
**A.** 72.86%

**Q.** What about the “Phase of cell cycle (% of cells) S” value (MCF-7 cells; MCF-7, 5 μM) of the same molecule?
**A.** 18.35%

**Q.** And the “Phase of cell cycle (% of cells) Sub G0” value (MCF-7 cells; MCF-7, 5 μM)?
**A.** 3.98%

**Q.** What about the “Phase of cell cycle (% of cells) G2/M” value (MCF-7 cells; MCF-7, 10 μM) of the same molecule?
**A.** 69.36%

**Q.** What about the “Phase of cell cycle (% of cells) S” value (MCF-7 cells; MCF-7, 10 μM) of the same molecule?
**A.** 18.96%

**Q.** What about the “Phase of cell cycle (% of cells) Sub G0” value (MCF-7 cells; MCF-7, 10 μM) of the same molecule?
**A.** 3.47%

**Q.** And the “tumor size reduced by” value (MCF-7; MCF-7 xenograft, 20 μg/0.05 ml intra-tumor for 10 days)?
**A.** 14.19±0.32%

**Q.** What about the “histological examination of tumor tissue” value (MCF-7; nude mice, 20 μg) of the same molecule?
**A.** lowered the tumor cell density

**Q.** What about the “effect on microtubule network” value [1] of the same molecule?
**A.** microtubule polymerization with an increase in the density of cellular microtubules
